Patent US20040086883A1, “Method and device for characterising and/or for detecting a bonding complex” (priority 2000, published 2004)
{Cy3} = Cy3 fluorescent dye label

Key:
avidin = avidin (Gallus gallus, UniProt P02701); details: AFM force spectrometer, Florin et al. Science 1994; cited from earlier work
streptavidin [1] = target: T1, streptavidin (Streptomyces avidinii, UniProt P22629); assay: Differential force test comparing biotin/streptavidin and iminobiotin/streptavidin complexes (pillar pressing); format: binding; details: for proportion of streptavidin transferred from the hapten on the substrate to the biotin-coated pillar: pH 10 buffer, 30 minutes contact, Alexa-Fluor-546 marked streptavidin
T1 construct: purchased Molecular Probes, Eugene
Excerpt: Biotin and iminobiotin are bound to a substrate. Fluorescence-marked streptavidin is bound to the immobilized haptens. A plunger or pillar which is coated with biotin is moved towards the substrate in such a way that the biotin which is bound to the pillar can bind the streptavidin coupled by way of the haptens to the substrate. The pillar is then removed again. To conclude, the procedure involves determining which proportion of the streptavidin was transferred from the iminobiotin of the substrate onto the biotin of the pillar and which proportion of the streptavidin was transferred from the biotin of the substrate onto the biotin of the pillar.
20 μl of a solution with 2 mg/100 μl of NHS-PEG-biotin (Shearwater, Huntsville) was incubated under a cover glass for 1 hour on a pillar with an area of 1 cm^2. It was washed with very pure water and blown dry with nitrogen.
A glass object carrier was cleaned by a 100-minute treatment with saturated KOH-ethanol solution. The cleaned surface was incubated with 3% aminosilane (3-aminopropyldimethyl-ethoxysilane; ABCR, Karlsruhe) in 10% H2O and 87% Ethanol for 30 minutes. The silanised surface was washed with very pure water and blown dry with nitrogen. […] The tBoc protective group was then split off with trifluoro-acetic acid. NHS-biotin and NHS-iminobiotin (Sigma, St. Louis) were respectively diluted starting from a 50 mM stock solution in DMSO to give a final concentration of 5 mM with PBS (phosphate buffered saline, Sigma). The attachment of biotin or iminobiotin respectively to the amino-functionalized glass substrate was effected from that solution. That was incubated for one hour in a saturated water atmosphere, washed with very pure water and blown dry with nitrogen.
For the purposes of binding the streptavidin AlexaFluor ? -546 conjugate (Molecular Probes, Eugene), a solution was produced, involving a concentration of 0.1 mg/ml in a glycine/NaOH-buffer (pH 10). The substrate was incubated for 20 minutes with the solution, then washed for 5 minutes in that buffer and blown dry with nitrogen. […]

streptavidin [2] = target: T1, streptavidin; assay: Force test with reverse pillar pressing, biotin/streptavidin versus desthiobiotin/streptavidin; format: binding
Experimental: The polymerized structured and unstructured PDMS plates were cut to a size of 1 cm^2. Then the pieces were exposed to an H2O plasma in a plasma furnace at 2 mbar for 30 s. The oxidized surface was incubated with a solution of 2% aldehyde silane (4-triethoxysilylbutanal, Amchro, Hattersheim, Germany) in 10% H2O and 88% ethanol for 30 minutes. The silanised surface was washed with ethanol and very pure water and blown dry with nitrogen.
The functionalized substrates and pillars were incubated overnight in PBS (phosphate buffered saline; Sigma, St. Louis, USA) with 2% BSA (bovine serum albumin; Roth, Karlsruhe, Germany). In that case BSA binds with its amino groups to the aldehyde groups of the surface. For stabilization purposes the resulting Schiff's bases were reduced with 1% sodium borohydride for 15 minutes. […]
Depending on the respective pillar composition a fluorescence-marked streptavidin-AlexaFluor ? -647 conjugate (Molecular Probes, Eugene) was bound to the substrate or the pillar. […]
The reverse implementation permits evaluation which is independent of the coupling efficiency. […] That assumption is permissible here by virtue of the very similar properties of the binding partners BP1 and BP4 to be compared (for example size) and can also be checked by measurement of fluorescence intensity prior to the pillar pressing procedure. […]

[3] = tested on: DNA-duplexes with oligo1 and oligo3; assay: Differential force test comparing two DNA-duplexes (oligo2 with oligo1 versus oligo2 with oligo3); format: binding; details: for Q St = ΔCy3St/ΔCy5St: enrichment of Cy3-oligo2 relative to Cy5-oligo3; for Q Unt = ΔCy3Unt/ΔCy5Unt: depletion of Cy3-oligo2 relative to Cy5-oligo3

T1 sequence (P22629 25-183): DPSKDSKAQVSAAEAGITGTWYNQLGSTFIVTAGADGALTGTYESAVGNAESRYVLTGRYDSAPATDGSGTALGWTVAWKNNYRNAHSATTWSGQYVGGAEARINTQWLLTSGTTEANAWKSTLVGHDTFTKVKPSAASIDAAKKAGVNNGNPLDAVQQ
avidin, sequence (P02701 25-152, species assumed): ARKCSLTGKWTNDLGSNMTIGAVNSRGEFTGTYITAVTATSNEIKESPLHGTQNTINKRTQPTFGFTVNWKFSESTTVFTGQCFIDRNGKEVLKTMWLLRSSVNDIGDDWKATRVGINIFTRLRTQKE

For `N=C1N[C@H]2[C@H](CS[C@H]2CCCCC(=O)O)N1` [iminobiotin], the “unbinding force of the receptor-ligand pair” value (avidin) is listed as 85±15 pN and the “proportion of streptavidin transferred from the hapten on the substrate to the biotin-coated pillar” value (streptavidin [1]) is listed as 30%.

For `O=C(O)CCCC[C@@H]1SC[C@@H]2NC(=O)N[C@@H]21` [biotin], the “unbinding force of the receptor-ligand pair” value (avidin) is given as 160 pN, the “relative strength of the streptavidin-hapten bond” value (streptavidin [1]; biotin versus iminobiotin, assuming identical coupling efficiency and equal density) is given as “stronger” and the “proportion of streptavidin transferred from the hapten on the substrate to the biotin-coated pillar” value (streptavidin [1]) is given as 15%.

For `C[C@@H]1NC(=O)N[C@@H]1CCCCCC(=O)O` [desthiobiotin], the “quotient of the transfer to desthiobiotin and the transfer to biotin” value (streptavidin [2]; average of both tests) was 0.18 and the “binding force to streptavidin relative to biotin” value (streptavidin [2]; reverse pillar pressing) was “weaker”.

In the case of “5′TTGCTCCCAGACTCTCTGCTGAAAGTCCCTTTGATAATCGTAACGAGGGGTTATACGCCGTAAAGCCCGGAGA-Cy3 [oligo2a]”, the “unbinding force of the duplex with oligo3, higher than the duplex between oligo 2b and oligo3” value ([3]; from QSt and QUnt) is reported as “at least 500%”, the “QSt = QA St/QB St” value ([3]; pillar, Experiment 2a relative to reference experiment 2b) is reported as 1.97 and the “QA St corr.” value ([3]; pillar, corrected by factor 0.82) is reported as 0.98. For the same molecule, the “Q St = ΔCy3St/ΔCy5St” value ([3]; pillar) was 1.20 ± 0.08, the “QUnt = QA Unt/QB Unt” value ([3]; substrate, Experiment 2a relative to reference experiment 2b) was 1.92 and the “QA Unt corr.” value ([3]; substrate, corrected by factor 1.39) was 0.96. For the same molecule, the “Q Unt = ΔCy3Unt/ΔCy5Unt” value ([3]; substrate) was 0.69±0.09.

B1: 5′ACTCTCTGCTGAAAGTCCCTTTGATAATCGTAACGAGGGGTTATACGCCGTAAAGCCGGAGA-Cy3 (nucleic acid)
chain: ACTCTCTGCTGAAAGTCCCTTTGATAATCGTAACGAGGGGTTATACGCCGTAAAGCCGGAGA
modifications: DNA, 3' {Cy3}, backbone not given here
In the case of B1, the “Q St = ΔCy3St/ΔCy5St” value ([3]; pillar) is reported as 0.61 ± 0.08 and the “Q Unt = ΔCy3Unt/ΔCy5Unt” value ([3]; substrate) is reported as 0.36±0.08.
